In brackets after ≈: the same amount, converted by molar mass. Activity calls are given as the source filed them. The rule behind the calls is not given here.
Tests used:
[1] = Ratio of Cmax in tissue cage fluid of Wistar rat infected with methicillin-resistant Staphylococcus aureus HUSA 304 at 100 mg/kg/day, ip to MIC for methicillin-resistant Staphylococcus aureus HUSA 304; type: functional; settings: route intraperitoneal
[2] = Cmax in tissue cage fluid of Wistar rat infected with methicillin-resistant Staphylococcus aureus HUSA 304 at 100 mg/kg/day, ip; type: ADME, organism-based, Interstitial fluid; parameters: dose 100 mg/kg/day, route intraperitoneal
[3] = system: Staphylococcus aureus; assay: Antimicrobial activity against log-phase methicillin-resistant Staphylococcus aureus HUSA 304 by M7-A6 method in presence of 50 mg/L calcium ions; type: functional
[4] = system: Staphylococcus aureus; assay: Antimicrobial activity against log-phase methicillin-resistant Staphylococcus aureus HUSA 304 assessed as resistant bacteria in tissue cage fluid selected on 1 to 5 ug/ml of compound measured on day 8 post treatment in presence of 50 mg/L calcium ions; type: functional, organism-based
[5] = fT>MIC in methicillin-resistant Staphylococcus aureus HU 304 infected in Wistar rat at 70 mg/kg/day, ip for 7 days; type: functional; settings: route intraperitoneal
[6] = Cmax in serum of human infected with methicillin-resistant Staphylococcus aureus HUSA 304 at 10 mg/kg/day, […]; type: ADME, organism-based; parameters: dose 10 mg/kg/day, route intraperitoneal
[7] = AUC (0 to infinity) in serum of Wistar rat infected with methicillin-resistant Staphylococcus aureus HUSA 304 at 70 mg/kg/day, ip for 7 days; type: ADME, organism-based; parameters: dose 70 mg/kg/day, time infinity, route intraperitoneal
[8] = Cmax in tissue cage fluid of Wistar rat infected with methicillin-resistant Staphylococcus aureus HUSA 304 at 45 mg/kg/day, ip; type: ADME, organism-based, Interstitial fluid; parameters: dose 45 mg/kg/day, route intraperitoneal
[9] = system: Staphylococcus aureus; assay: Antimicrobial activity against methicillin-resistant Staphylococcus aureus HUSA 304 infected in Wistar rat assessed as decrease in bacterial load in tissue cage fluid at 100 mg/kg/day, ip administered for 7 days measured on day 11 post treatment in presence of 50 mg/L calcium ions; type: functional; settings: route intraperitoneal
[10] = system: Staphylococcus aureus; assay: Antimicrobial activity against log-phase methicillin-resistant Staphylococcus aureus HUSA 304 selected on 1 to 5 ug/ml of compound measured after 5 days by M7-A6 method in presence of 50 mg/L calcium ions; type: functional; settings: HUSA 304, 120 h
[11] = Ratio of Cmax in tissue cage fluid of Wistar rat infected with methicillin-resistant Staphylococcus aureus HUSA 304 at 45 mg/kg/day, ip to MIC for methicillin-resistant Staphylococcus aureus HUSA 304; type: functional; settings: route intraperitoneal
[12] = system: Staphylococcus aureus; assay: Antimicrobial activity against log-phase methicillin-resistant Staphylococcus aureus HUSA 304 assessed as resistant bacteria in tissue cage fluid selected on 1 to 5 ug/ml of compound measured on day 11 post treatment in presence of 50 mg/L calcium ions; type: functional, organism-based
[13] = AUC (0 to 24 hrs) in serum of human infected with methicillin-resistant Staphylococcus aureus HUSA 304 at 8 mg/kg/day, […]; type: ADME, organism-based; parameters: dose 8 mg/kg/day, time < 24 hr
[14] = fT>MIC in methicillin-resistant Staphylococcus aureus HU 304 infected in Wistar rat at 45 mg/kg/day, ip for 7 days; type: functional; settings: route intraperitoneal
[15] = AUC (0 to 24 hrs) in serum of human infected with methicillin-resistant Staphylococcus aureus HUSA 304 at 10 mg/kg/day, […]; type: ADME, organism-based; parameters: dose 10 mg/kg/day, time < 24 hr
[16] = AUC (0 to 24 hrs) in serum of human infected with methicillin-resistant Staphylococcus aureus HUSA 304 at 6 mg/kg/day, […]; type: ADME, organism-based; parameters: time < 24 hr, dose 6 mg/kg/day
[17] = Cmax in serum of human infected with methicillin-resistant Staphylococcus aureus HUSA 304 at 8 mg/kg/day, […]; type: ADME, organism-based; parameters: dose 8 mg/kg/day, route intraperitoneal
[18] = AUC (0 to infinity) in serum of Wistar rat infected with methicillin-resistant Staphylococcus aureus HUSA 304 at 100 mg/kg/day, ip for 7 days; type: ADME, organism-based; parameters: dose 100 mg/kg/day, time infinity, route intraperitoneal
[19] = Cmax in serum of Wistar rat infected with methicillin-resistant Staphylococcus aureus HUSA 304 at 45 mg/kg/day, ip for 7 days; type: ADME, organism-based; parameters: dose 45 mg/kg/day, route intraperitoneal
[20] = Ratio of AUC (0 to infinity) in tissue cage fluid of Wistar rat infected with methicillin-resistant Staphylococcus aureus HUSA 304 at 45 mg/kg/day, ip to MIC for methicillin-resistant Staphylococcus aureus HUSA 304; type: functional; settings: route intraperitoneal
[21] = Cmax in serum of Wistar rat infected with methicillin-resistant Staphylococcus aureus HUSA 304 at 70 mg/kg/day, ip for 7 days; type: ADME, organism-based; parameters: dose 70 mg/kg/day, route intraperitoneal
[22] = system: Staphylococcus aureus; assay: Antimicrobial activity against methicillin-resistant Staphylococcus aureus HUSA 304 infected in Wistar rat assessed as decrease in bacterial load in tissue cage fluid at 100 mg/kg/day, ip administered for 7 days measured on day 8 post treatment in presence of 50 mg/L calcium ions; type: functional; settings: route intraperitoneal
[23] = AUC (0 to infinity) in tissue cage fluid of Wistar rat infected with methicillin-resistant Staphylococcus aureus HUSA 304 at 100 mg/kg/day, ip; type: ADME, organism-based; parameters: dose 100 mg/kg/day, time infinity, route intraperitoneal
[24] = system: Staphylococcus aureus; assay: Bactericidal activity against stationary-phase methicillin-resistant Staphylococcus aureus HUSA 304 after 24 hrs by time kill analysis; type: functional; settings: HUSA 304, 24 h
[25] = Ratio of AUC (0 to infinity) in tissue cage fluid of Wistar rat infected with methicillin-resistant Staphylococcus aureus HUSA 304 at 100 mg/kg/day, ip to MIC for methicillin-resistant Staphylococcus aureus HUSA 304; type: functional; settings: route intraperitoneal
[26] = AUC (0 to infinity) in tissue cage fluid of Wistar rat infected with methicillin-resistant Staphylococcus aureus HUSA 304 at 45 mg/kg/day, ip; type: ADME, organism-based; parameters: dose 45 mg/kg/day, time infinity, route intraperitoneal
[27] = AUC (0 to infinity) in serum of Wistar rat infected with methicillin-resistant Staphylococcus aureus HUSA 304 at 45 mg/kg/day, ip for 7 days; type: ADME, organism-based; parameters: dose 45 mg/kg/day, time infinity, route intraperitoneal
[28] = fT>MIC in methicillin-resistant Staphylococcus aureus HU 304 infected in Wistar rat at 100 mg/kg/day, ip for 7 days; type: functional; settings: route intraperitoneal
[29] = Cmax in serum of human infected with methicillin-resistant Staphylococcus aureus HUSA 304 at 6 mg/kg/day, […]; type: ADME, organism-based; parameters: dose 6 mg/kg/day
[30] = system: Staphylococcus aureus; assay: Antimicrobial activity against log-phase methicillin-resistant Staphylococcus aureus HUSA 304 assessed as resistant bacteria on coverslip selected on 1 to 5 ug/ml of compound measured on day 11 post treatment in presence of 50 mg/L calcium ions; type: functional, organism-based
[31] = Ratio of Cmax in tissue cage fluid of Wistar rat infected with methicillin-resistant Staphylococcus aureus HUSA 304 at 70 mg/kg/day, ip to MIC for methicillin-resistant Staphylococcus aureus HUSA 304; type: functional; settings: route intraperitoneal
[32] = AUC (0 to infinity) in tissue cage fluid of Wistar rat infected with methicillin-resistant Staphylococcus aureus HUSA 304 at 70 mg/kg/day, ip; type: ADME, organism-based; parameters: dose 70 mg/kg/day, time infinity, route intraperitoneal
[33] = system: Staphylococcus aureus; assay: Bactericidal activity against log-phase methicillin-resistant Staphylococcus aureus HUSA 304 after 24 hrs by time kill analysis; type: functional; settings: HUSA 304, 24 h
[34] = Cmax in tissue cage fluid of Wistar rat infected with methicillin-resistant Staphylococcus aureus HUSA 304 at 70 mg/kg/day, ip; type: ADME, organism-based, Interstitial fluid; parameters: dose 70 mg/kg/day, route intraperitoneal
[35] = Ratio of AUC (0 to infinity) in tissue cage fluid of Wistar rat infected with methicillin-resistant Staphylococcus aureus HUSA 304 at 70 mg/kg/day, ip to MIC for methicillin-resistant Staphylococcus aureus HUSA 304; type: functional; settings: route intraperitoneal
[36] = Cmax in serum of Wistar rat infected with methicillin-resistant Staphylococcus aureus HUSA 304 at 100 mg/kg/day, ip for 7 days; type: ADME, organism-based; parameters: dose 100 mg/kg/day, route intraperitoneal
[37] = system: Staphylococcus aureus; assay: Antimicrobial activity against log-phase methicillin-resistant Staphylococcus aureus HUSA 304 by M7-A6 method; type: functional
[38] = system: Staphylococcus aureus; assay: Antimicrobial activity against methicillin-resistant Staphylococcus aureus HUSA 304 infected in Wistar rat assessed as decrease in bacterial load in tissue cage fluid at 35 mg/kg, ip administered every 12 hrs for 7 days measured on day 8 post treatment; type: functional; settings: route intraperitoneal
[39] = system: Staphylococcus aureus; assay: Antimicrobial activity against methicillin-resistant Staphylococcus aureus HUSA 304 infected in Wistar rat assessed as decrease in bacterial load in tissue cage fluid at 35 mg/kg, ip administered every 12 hrs for 7 days measured on day 11 post treatment; type: functional; settings: route intraperitoneal
[40] = system: Staphylococcus aureus; assay: Bactericidal activity against stationary-phase methicillin-resistant Staphylococcus aureus HUSA 304 after 24 hrs by time kill analysis in presence of 50 mg/L calcium ions; type: functional; settings: HUSA 304, 24 h
[41] = system: Staphylococcus aureus; assay: Bactericidal activity against log-phase methicillin-resistant Staphylococcus aureus HUSA 304 after 24 hrs by time kill analysis in presence of 50 mg/L calcium ions; type: functional; settings: HUSA 304, 24 h
[42] = system: Staphylococcus aureus; assay: Antimicrobial activity against methicillin-resistant Staphylococcus aureus HUSA 304 infected in Wistar rat assessed as decrease in bacterial load in tissue cage fluid at 50 mg/kg, ip administered every 12 hrs for 7 days measured on day 11 post treatment; type: functional; settings: route intraperitoneal
[43] = system: Staphylococcus aureus; assay: Antimicrobial activity against log-phase methicillin-resistant Staphylococcus aureus HUSA 304 assessed as resistant bacteria in tissue cage fluid selected on 4 ug/ml of compound measured on day 8 post treatment; type: functional, organism-based
[44] = system: Staphylococcus aureus; assay: Antimicrobial activity against log-phase methicillin-resistant Staphylococcus aureus HUSA 304 assessed as resistant bacteria on coverslip selected on 4 ug/ml of compound measured on day 11 post treatment; type: functional, organism-based
[45] = system: Staphylococcus aureus; assay: Antimicrobial activity against methicillin-resistant Staphylococcus aureus HUSA 304 infected in Wistar rat assessed as decrease in bacterial load in tissue cage fluid at 50 mg/kg, ip administered every 12 hrs for 7 days measured on day 8 post treatment; type: functional; settings: route intraperitoneal
[46] = system: Staphylococcus aureus; assay: Antimicrobial activity against log-phase methicillin-resistant Staphylococcus aureus HUSA 304 assessed as resistant bacteria in tissue cage fluid selected on 4 ug/ml of compound measured on day 11 post treatment; type: functional, organism-based

## CCCCCCCCCC(=O)N[C@@H](Cc1c[nH]c2ccccc12)C(=O)N[C@H](CC(N)=O)C(=O)N[C@@H](CC(=O)O)C(=O)N[C@@H]1C(=O)NCC(=O)N[C@@H](CCCN)C(=O)N[C@@H](CC(=O)O)C(=O)N[C@H](C)C(=O)N[C@@H](CC(=O)O)C(=O)NCC(=O)N[C@H](CO)C(=O)N[C@@H]([C@H](C)CC(=O)O)C(=O)N[C@@H](CC(=O)c2ccccc2N)C(=O)O[C@@H]1C
[1]
  Ratio: 40
[2]
  Cmax: 40 µg/mL
[3]
  MIC: 1 µg/mL
[4]
  Activity: Active
[5]
  fT>MIC: 100%
[6]
  Cmax: 130 µg/mL
[7]
  AUC(0-inf): 984 µg·h/mL
[8]
  Cmax: 26 µg/mL
[9]
  log10cfu: 2.57
[10]
  MIC: 1 µg/mL
[11]
  Ratio: 26
[12]
  Activity: Active
[13]
  AUC at 24 h: 773 µg·h/mL
[14]
  fT>MIC: 100%
[15]
  AUC at 24 h: 1010 µg·h/mL
[16]
  AUC at 24 h: 730 µg·h/mL
[17]
  Cmax: 106 µg/mL
[18]
  AUC(0-inf): 1200 µg·h/mL
[19]
  Cmax: 103 µg/mL
[20]
  RatioAUC/MIC: 795
[21]
  Cmax: 128 µg/mL
[22]
  log10cfu: 2.26
[23]
  AUC(0-inf): 1100 µg·h/mL
[24]
  MBC: 24 µg/mL (≈ 14.8 µM)
[25]
  RatioAUC/MIC: 1100
[26]
  AUC(0-inf): 795 µg·h/mL
[27]
  AUC(0-inf): 830 µg·h/mL
[28]
  fT>MIC: 100%
[29]
  Cmax: 95 µg/mL
[30]
  Activity: Active
[31]
  Ratio: 34
[32]
  AUC(0-inf): 953 µg·h/mL
[33]
  MBC: 4 µg/mL (≈ 2.47 µM)
[34]
  Cmax: 34 µg/mL
[35]
  RatioAUC/MIC: 953
[36]
  Cmax: 140 µg/mL

## CO[C@H]1/C=C/O[C@@]2(C)Oc3c(C)c(O)c4c(O)c(c(/C=N/N5CCN(C)CC5)c(O)c4c3C2=O)NC(=O)/C(C)=C\C=C\[C@H](C)[C@H](O)[C@@H](C)[C@@H](O)[C@@H](C)[C@H](OC(C)=O)[C@@H]1C [RIFAMPIN]
[37]
  MIC: 0.03 µg/mL (≈ 0.0365 µM)
[38]
  log10cfu: 1.36
[39]
  log10cfu: 1.1
[40]
  MBC: > 8 µg/mL
[41]
  MBC: 0.5 µg/mL

## CC(=O)NC[C@H]1CN(c2ccc(N3CCOCC3)c(F)c2)C(=O)O1 [LINEZOLID]
[42]
  log10cfu: 0.93
[43]
  Activity: Active
[44]
  Activity: Active
[40]
  MBC: > 32 µg/mL
[45]
  log10cfu: 1.06
[46]
  Activity: Active
[41]
  MBC: > 32 µg/mL

## CN[C@H](CC(C)C)C(=O)N[C@H]1C(=O)N[C@@H](CC(N)=O)C(=O)N[C@H]2C(=O)N[C@H]3C(=O)N[C@H](C(=O)N[C@H](C(=O)O)c4cc(O)cc(O)c4-c4cc3ccc4O)[C@H](O)c3ccc(c(Cl)c3)Oc3cc2cc(c3O[C@@H]2O[C@H](CO)[C@@H](O)[C@H](O)[C@H]2O[C@H]2C[C@](C)(N)[C@H](O)[C@H](C)O2)Oc2ccc(cc2Cl)[C@H]1O [VANCOMYCIN]
[40]
  MBC: > 32 µg/mL
[41]
  MBC: 4 µg/mL
